The results in this text go back to patent US20130158070A1, “CONJUGATES OF POLYUNSATURATED FATTY ACIDS AND AMINE-CONTAINING COMPOUNDS AND USES THEREOF” (priority 2010, published 2013).

The subject of data set [1] is carrageenan-induced edema. The data set can be described thus: Carrageenan-induced paw edema in rats. It is filed as in vivo, Sprague dawley rats. The note with it: carrageenan 1 mg/paw, versus Ibuprofen, FIG. 4. As for the experimental part:
Exemplary conjugates were subjected to in vivo study of paw edema measurements in rats. Sprague dawley rats (150-200 grams) were used. Edema was induced by a single sub-plantar injection of carrageenan (1 mg/paw) into the left hind paw of the rat under light ether anesthesia. The total volume injected was 0.1 ml. The paw volume was measured immediately before the injection and at hourly intervals thereafter using a hydroplethysmometer (model 7150, Ugo Basile, Italy). The results were expressed either as the increase in paw volume (ml) calculated by subtracting the basal volume or by calculating the area under the time-course curve (AUC; ml h) for each group.
The anti-inflammatory activity of the conjugates was tested versus Ibuprofen, as a reference, on carrageenan-induced edema at different time intervals.

The target of a further data set is T1, hERG channels (Homo sapiens, UniProt Q12809).
T1 construct: expressed in transfected cells; host or cells: Xenopus laevis oocytes injected with hERG cRNA (pSP64 vector, SP6 promoter)
Kind of data set: hERG channels expressed in Xenopus oocytes, two-electrode voltage clamp. The data set is classed as cell-based. On the set-up: initial current / final current / remaining current / avarage (remaining current): unit not given here. The note with it: for final current: at −130 mV; for final current / remaining current / initial current: individual oocytes; for avarage (remaining current): 5 oocytes; for initial current: at −130 mV after pre-pulse to +40 mV. As for the experimental part:
The sensitivity of hERG channels to two compounds, MWL001 also termed in the application as MW001 or MWL-001 and MWL002 also termed MW002 or MWL-002, was tested using the Xenopus oocyte expression system and the two-electrode voltage clamp technique. Activity of the compounds was tested at a concentration of 15 μM both from the external and from the internal sides of the membrane.
Clones: hERG gene (gi|26051269) was cloned within pSP64 expression vector (Promega) downstream to a SP6 RNA polymerase promoter. cRNA was prepared following digestion with EcoR I.
Electrophysiology: Xenopus laevis oocytes were isolated, defolliculated and maintained at 17° C. in ND-91 solution (in mM): 91 NaCl, 2 KCl, 1.8 CaCl2, 1 MgCl2, and 5 HEPES, pH 7.5, supplemented with 100 U/ml penicillin, 100 μg/ml streptomycin and 50 μg/ml gentamycin. Oocytes were injected with 20 or 40 nl, containing 7-14 ng of hERG cRNA. Whole-cell currents were measured 2-3 days after injection by the two-electrode voltage clamp technique (TEVC), using a GeneClamp 500B amplifier (Axon Instruments). Data were filtered at 2 kHz and sampled at 5 kHz with Clampex 9.0 software (Axon Instruments). The pipette was filled with 3M KCl and the bath solution contained (in mM): 4 KCl, 96 NaCl, 1 MgCl2, 0.3 CaCl2, 5 HEPES, pH 7.4. For external application of the compounds, stock solutions of either MWL001 or MWL002 were dissolved in the bath solution to a final concentration of 15 μM. During the experiments, bath solution exchange rate was about 2 ml/minutes. At this rate, more than 95% of the bath solution is replaced within 30 seconds. For internal blockade measurements, oocytes were injected with 46 nl of diluted (0.274 mM) compound solutions to achieve a final concentration within the oocyte of 15 μM.
Internal application: Compounds were injected into the oocyte to achieve a final concentration of 15 μM. Injection was made during current measurements and results were collected before and for 5 minutes after the injection. Current levels were determined in 4 seconds intervals at −130 mV, following a pre-pulse to +40 mV (see, Table 4 and FIG. 3).
External application: MWL compounds were applied at 15 μM concentration in the bath solution and current levels were determined in 4 seconds intervals at −130 mV, following a pre-pulse to +40 mV, for 15 minutes (see, Table 4). In addition, measurements were made to determine channel behavior throughout the entire physiological voltage range.
Table 4 presents the data obtained for the effect of MWL compounds on expressed hERG channels in individual oocytes which were either incubated (external) or injected (internal) with MWL compounds. Currents were monitored for 15 or 5 minutes, respectively.

The next data set has as its target T2, COX-2 (Homo sapiens, UniProt P35354).
T2 sequence (P35354 18-604): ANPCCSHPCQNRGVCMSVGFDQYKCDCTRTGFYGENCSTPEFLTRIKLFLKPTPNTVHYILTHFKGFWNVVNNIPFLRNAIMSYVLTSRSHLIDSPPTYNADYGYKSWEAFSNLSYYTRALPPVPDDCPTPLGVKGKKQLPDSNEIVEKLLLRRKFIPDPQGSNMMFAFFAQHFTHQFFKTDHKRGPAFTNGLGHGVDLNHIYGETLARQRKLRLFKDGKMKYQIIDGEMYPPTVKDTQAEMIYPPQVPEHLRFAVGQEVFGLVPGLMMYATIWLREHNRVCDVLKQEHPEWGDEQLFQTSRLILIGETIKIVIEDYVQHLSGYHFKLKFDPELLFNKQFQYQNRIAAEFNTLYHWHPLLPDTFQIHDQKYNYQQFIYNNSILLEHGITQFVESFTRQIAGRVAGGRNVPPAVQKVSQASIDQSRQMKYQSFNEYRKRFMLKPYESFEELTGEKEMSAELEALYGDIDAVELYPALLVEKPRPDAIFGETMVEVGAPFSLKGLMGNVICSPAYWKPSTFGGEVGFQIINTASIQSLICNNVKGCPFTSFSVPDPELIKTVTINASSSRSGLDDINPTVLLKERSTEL
Kind of data set: COX-2 inhibition, enzyme immunoassay (EIA). The data set is classed as biochemical. The note with it: ratio of COX-1 IC50 to COX-2 IC50. As for the experimental part:
Exemplary conjugates as described herein were tested in vitro for inhibition of COX-1 and COX-2, using an enzyme immunoassay (EIA), as follows.
Cyclooxygenase catalyzes the first step in the biosynthesis of arachidonic acid (AA) to PGH2. PGF2α, produced from PGH2 by reduction with stannous chloride, is measured by enzyme immunoassay (ACETM competitive EIA).
Stock solutions of test compounds were dissolved in a minimum volume of DMSO. Briefly, to a series of supplied reaction buffer solutions (960 μl, 0.1M Tris-HCl pH 8.0 containing 5 mM EDTA and 2 mM phenol) with either COX-1 or COX-2 (10 μl) enzyme in the presence of heme (10 μl) were added 10 μl of various concentrations of test drug solutions (0.01, 0.1, 1, 10, 50, and 100 μM in a final volume of 1 ml). These solutions were incubated for a period of 5 minutes at 37° C. after which 10 μL of AA (100 μM) solution were added and the COX reaction was stopped by the addition of 50 μl of 1M HCl after 2 minutes. PGF2α, produced from PGH2 by reduction with stannous chloride was measured by enzyme immunoassay.
This assay is based on the competition between PGs and a PG-acetylcholinesterase conjugate (PG tracer) for a limited amount of PG antiserum. The amount of PG tracer that is able to bind to the PG antiserum is inversely proportional to the concentration of PGs in the wells since the concentration of PG tracer is held constant while the concentration of PGs varies. The concentration of the test compound causing 50% inhibition (IC50, μM) was calculated from the concentration-inhibition response curve (duplicate determinations).

The mark [2] stands for this setting: external application 15 μM in bath, monitored 15 minutes.
[3] abbreviates: external application 15 μM, 15 minutes.
The mark [4] stands for this setting: external application, before exposure.
The mark [5] stands for this setting: internal application (injected) 15 μM, 5 minutes.
Where [6] appears, read: internal application (injected) 15 μM, monitored 5 minutes.
The mark [7] stands for this setting: internal application, before injection.

“And” between values parts separate entries of the source, which are not always exact repeats. Equal values may be shown once.

T1 sequence (Q12809 whole entry): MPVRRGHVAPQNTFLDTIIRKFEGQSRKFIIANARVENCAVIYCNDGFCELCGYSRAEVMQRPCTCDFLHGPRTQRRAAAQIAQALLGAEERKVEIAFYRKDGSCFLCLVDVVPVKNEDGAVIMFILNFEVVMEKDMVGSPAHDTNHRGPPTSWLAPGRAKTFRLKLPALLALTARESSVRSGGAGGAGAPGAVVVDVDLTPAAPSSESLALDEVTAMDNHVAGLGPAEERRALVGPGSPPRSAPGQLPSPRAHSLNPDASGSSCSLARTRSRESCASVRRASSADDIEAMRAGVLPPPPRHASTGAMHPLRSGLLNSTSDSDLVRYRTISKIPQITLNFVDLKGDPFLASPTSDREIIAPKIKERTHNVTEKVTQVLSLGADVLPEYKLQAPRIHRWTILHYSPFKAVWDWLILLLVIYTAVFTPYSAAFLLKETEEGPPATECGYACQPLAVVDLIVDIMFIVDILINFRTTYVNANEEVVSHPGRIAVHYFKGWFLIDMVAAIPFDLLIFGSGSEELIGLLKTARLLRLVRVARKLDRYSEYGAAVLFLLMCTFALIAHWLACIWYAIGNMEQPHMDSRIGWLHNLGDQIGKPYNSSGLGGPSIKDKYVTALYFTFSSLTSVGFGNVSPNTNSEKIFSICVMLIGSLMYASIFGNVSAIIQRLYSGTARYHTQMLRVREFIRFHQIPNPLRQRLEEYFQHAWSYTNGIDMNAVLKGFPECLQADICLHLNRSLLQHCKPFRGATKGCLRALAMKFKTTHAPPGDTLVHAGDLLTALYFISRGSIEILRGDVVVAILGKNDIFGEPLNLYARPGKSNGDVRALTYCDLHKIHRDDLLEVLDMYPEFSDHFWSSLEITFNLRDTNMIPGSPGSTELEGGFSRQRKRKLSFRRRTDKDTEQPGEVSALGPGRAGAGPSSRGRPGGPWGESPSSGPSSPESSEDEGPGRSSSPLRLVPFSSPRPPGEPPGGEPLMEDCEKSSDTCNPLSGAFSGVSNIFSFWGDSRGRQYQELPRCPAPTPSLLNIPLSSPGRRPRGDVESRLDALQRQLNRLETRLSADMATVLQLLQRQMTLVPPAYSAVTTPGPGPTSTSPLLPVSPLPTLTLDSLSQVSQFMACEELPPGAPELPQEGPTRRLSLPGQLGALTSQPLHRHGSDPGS

In the case of `CCC=CCC=CCC=CCC=CCC=CCC=CCCC(=O)N1CC(O)CC1C(=O)O` (centres unmarked) [MWL001], in data set [1], the “anti-inflammatory effect (paw swelling volume)” value is on record as “superior to Ibuprofen”. For the same compound, the final current was −12.8 and −15.5 and −15.8 and −10.8 and −26.0 on hERG channels (setting [2]); −6.5 and −11.1 and −15.5 and −9.5 and −18.5 on hERG channels (setting [6]). The “avarage (remaining current)” value on hERG channels (setting [3]) is given as 95.7; on hERG channels (setting [5]), 101.6. Further, the remaining current at hERG channels (setting [3]) was 100.8 and 91.2 and 98.1 and 100.0 and 88.6; at hERG channels (setting [5]), 95.6 and 101.8 and 112.3 and 100.0 and 98.4. Besides, the initial current at hERG channels (setting [4]) is −12.7 and −17.0 and −16.1 and −10.8 and −29.3; on hERG channels (setting [7]) it was −6.8 and −10.9 and −13.8 and −9.5 and −18.8. Also, the “Ratio (COX ½)” value on COX-2 came to 464.11.
Consider `CC/C=C\C/C=C\C/C=C\C/C=C\C/C=C\C/C=C\CCC(=O)NCCS(=O)(=O)O` [MWL002, N-docosa-4,7,10,13,16,19-hexaenoyl-taurine], for which the “effect on hERG channel currents” value on hERG channels (15 μM, internal and external exposure) is “no sensitivity”. Besides, the final current at hERG channels (setting [2]) is −7.1 and −5.0 and −7.2 and −18.0 and −9.0; on hERG channels (setting [6]) it was −13.7 and −6.5 and −11.5 and −7.2 and −8.0. The “avarage (remaining current)” value on hERG channels (setting [3]) turned out to be 108.2; on hERG channels (setting [5]), 106.9. Further, the remaining current at hERG channels (setting [3]) is 91.6 and 109.9 and 120.0 and 102.9 and 116.9; on hERG channels (setting [5]), 109.6 and 103.2 and 101.8 and 107.5 and 112.7. The initial current is −7.8 and −4.6 and −6.0 and −17.5 and −7.7 at hERG channels (setting [4]); −12.5 and −6.3 and −11.3 and −6.7 and −7.1 on hERG channels (setting [7]). The “Ratio (COX ½)” value on COX-2 turned out to be 27.86.
